This note sets out measurements from patent US9284333B2, “Fused pyrroledicarboxamides and their use as pharmaceuticals” (SANOFI, priority 2012, dated 2016).

pIC50: −log10 of the molar value.

In the first test the target is Human TASK-1 channels (Homo sapiens (Human), UniProt O14649). Put plainly: Determination of the activity on the TASK-1 channel in Xenopus oocytes (two-microelectrode voltage clamp). The format is cell-based. As to conditions: compound concentration 5 μM. The procedure, abridged: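 Current during 500 ms pulses to 40 mV from a −90 mV hold was recorded in oocytes expressing human TASK-1 for two days after cRNA injection. Compounds were added cumulatively to the ND96 bath (pH 7.4, room temperature). IC50 came from dose-response fitting of inhibition relative to pre-compound current.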
Sequence of Human TASK-1 channels (O14649 whole entry): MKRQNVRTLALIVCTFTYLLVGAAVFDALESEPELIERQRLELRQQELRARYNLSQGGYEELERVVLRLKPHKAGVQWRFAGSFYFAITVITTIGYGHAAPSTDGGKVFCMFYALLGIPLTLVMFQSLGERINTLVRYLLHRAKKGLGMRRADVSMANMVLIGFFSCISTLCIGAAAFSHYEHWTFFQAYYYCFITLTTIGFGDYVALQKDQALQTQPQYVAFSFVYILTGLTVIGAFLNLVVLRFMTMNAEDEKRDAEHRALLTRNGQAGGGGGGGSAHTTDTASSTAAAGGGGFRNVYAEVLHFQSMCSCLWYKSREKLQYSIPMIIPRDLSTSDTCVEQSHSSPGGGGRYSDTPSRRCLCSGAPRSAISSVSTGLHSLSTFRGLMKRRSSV
As usually defined, the inhibition is how much of the control response was suppressed. Low values mean a response near the control, high ones a response far below the control. As to `CC[C@H](NC(=O)c1cc(C(=O)N[C@H](CC)c2ccc(C(F)(F)F)nc2)c2n1CCOC2)c1ccccc1` [16kf, 3,4-Dihydro-1H-pyrrolo[2,1-c][1,4]oxazine-6,8-dicarboxylic acid 6-[((S)-1-phenyl-propyl)-amide] 8-{[(R)-1-(6-trifluoromethyl-pyridin-3-yl)-propyl]-amide}], testing at 5 µM gave an inhibition of 90%.

Staying with this test, now noted: human TASK-1 expressed in Xenopus oocytes, room temperature; read-out: IC50 value for TASK-1 inhibition.
Broadly, the pIC50 is the IC50 on a negative log10 scale, so that one unit is a factor of ten. Consider `CC[C@@H](NC(=O)c1cc(C(=O)N(C)[C@@H](C)C(=O)OC(C)C)n2c1COCC2)c1ccccc1` [16ja, (S)-2-{Methyl-[8-((R)-1-phenyl-propylcarbamoyl)-3,4-dihydro-1H-pyrrolo[2,1-c][1,4]oxazine-6-carbonyl]-amino}-propionic acid isopropyl ester], for which the pIC50 was 7.00.
`CC[C@@H](NC(=O)c1cc(C(=O)N[C@@H](CO)C(C)C)n2c1COCC2)c1ccccc1` [16jj, 3,4-Dihydro-1H-pyrrolo[2,1-c][1,4]oxazine-6,8-dicarboxylic acid 6-[((R)-1-hydroxymethyl-2-methyl-propyl)-amide] 8-[((R)-1-phenyl-propyl)-amide]]: the pIC50 was 5.36.
With `CC[C@@H](NC(=O)c1cc(C(=O)NCc2cccc(S(C)(=O)=O)c2)n2c1COCC2)c1ccccc1` [16gv, 3,4-Dihydro-1H-pyrrolo[2,1-c][1,4]oxazine-6,8-dicarboxylic acid 6-(3-methanesulfonyl-benzylamide) 8-[((R)-1-phenyl-propyl)-amide]], the pIC50 was 5.88.
On to `CC(C)[C@@H](NC(=O)c1cc(C(=O)N2CCC[C@@H]2C)n2c1COCC2)c1ccc(C#N)nc1` [16am, 6-((S)-2-Methyl-pyrrolidine-1-carbonyl)-3,4-dihydro-1H-pyrrolo[2,1-c][1,4]oxazine-8-carboxylic acid [(R)-1-(6-cyano-pyridin-3-yl)-2-methyl-propyl]-amide], for which the pIC50 is 6.04.
On the same count and under the same terms, the figure for `CC[C@@H](NC(=O)c1cc(C(=O)N[C@H](C)C(C)(C)C)n2c1COCC2)c1ccccc1` [16hr, 3,4-Dihydro-1H-pyrrolo[2,1-c][1,4]oxazine-6,8-dicarboxylic acid 8-[((R)-1-phenyl-propyl)-amide] 6-[((R)-1,2,2-trimethyl-propyl)-amide]] is 6.72.
As to `CC[C@@H](NC(=O)c1cc(C(=O)N[C@H](C)c2ccc(F)cc2)c2n1CCOC2)c1ncccn1` [16nv, 3,4-Dihydro-1H-pyrrolo[2,1-c][1,4]oxazine-6,8-dicarboxylic acid 8-{[(R)-1-(4-fluoro-phenyl)-ethyl]-amide} 6-[((R)-1-pyrimidin-2-yl-propyl)-amide]], the pIC50 is 6.77.
On to `CC[C@@H](NC(=O)c1cc(C(=O)N2CCC[C@@H]2C(O)C2CC2)n2c1COCC2)c1ccccc1` (stereo partly drawn) [16et, 6-[(R)-2-(Cyclopropyl-hydroxy-methyl)-pyrrolidine-1-carbonyl]-3,4-dihydro-1H-pyrrolo[2,1-c][1,4]oxazine-8-carboxylic acid ((R)-1-phenyl-propyl)-amide], for which the pIC50 was 5.89.
Consider `CC[C@@H](NC(=O)c1cc(C(=O)N2CCC[C@H]2C(C)C)c2n1CCOC2)c1ccccc1` [16km, 8-((S)-2-Isopropyl-pyrrolidine-1-carbonyl)-3,4-dihydro-1H-pyrrolo[2,1-c][1,4]oxazine-6-carboxylic acid ((R)-1-phenyl-propyl)-amide], for which the pIC50 was 6.41.
As for `CC[C@@H](NC(=O)c1cc(C(=O)NCc2nnn(C)n2)n2c1COCC2)c1ccccc1` [16rs, 3,4-Dihydro-1H-pyrrolo[2,1-c][1,4]oxazine-6,8-dicarboxylic acid 6-[(2-methyl-2H-tetrazol-5-ylmethyl)-amide] 8-[((R)-1-phenyl-propyl)-amide]], the pIC50 is 5.60.
For `CC[C@@H](NC(=O)c1cc(C(=O)N2CCC[C@@H]2COC(C)=O)n2c1COCC2)c1ccccc1` [16rg, acetic acid (R)-1-[8-((R)-1-phenyl-propylcarbamoyl)-3,4-dihydro-1H-pyrrolo[2,1-c][1,4]oxazine-6-carbonyl]-pyrrolidin-2-ylmethyl ester], the pIC50 was 6.96.
